This is an account of results in patent US4129721A, “A-40104 antibiotics and process for production thereof” (priority 1977, dated 1978).

Each structure is given as a SMILES string. Converted amounts (≈) assume the structure as drawn.

What all share (assay type): cell-based
The subject of assay [1] is pathogenic organisms, particularly gram-positive bacteria. Description: antibacterial activity (general statement).
In the next assay the test system is Clostridium perfringens. Description: microbe, parasite or virus in culture.
Assay [2] deals with Neisseria gonorrhea Lind. Description: gradient-plate agar-dilution method.
Assay [3] has as its system Hemophilus influenzae Brun. In words: gradient-plate agar-dilution method. As to conditions: Haemophilus influenzae.
In assay [4] the test system is Bacteroides fragilis 1936B. In words: standard agar-dilution test, anaerobic bacteria. As to conditions: 2 h.
Another assay relates to Bacteroides fragilis 111. Description: standard agar-dilution test, anaerobic bacteria. Conditions: Bacteroides fragilis, 111, 2 h.
For a further assay, the system named is Eubacterium aerofacines. In words: standard agar-dilution test, anaerobic bacteria. As to conditions: 2 h. The source says:
(§1) Table VIII summarizes the activity of A-40104 factor A, as determined by the standard agar-dilution test.
(§2) *MIC determined by the agar-dilution method. Endpoints were read after 2

Another assay relates to Actinomyces israelii. In words: standard agar-dilution test, anaerobic bacteria. As to conditions: read after 2 hours incubation.
Description: as §1, §2

Assay [5] deals with Bacteroides thetaiotaomicron. In words: standard agar-dilution test, anaerobic bacteria. As to conditions: 2 h.
Description: as §1, §2

The next assay relates to Clostridium septicum. Description: standard agar-dilution test, anaerobic bacteria. As to conditions: 2 h.
Description: as §1, §2

For a further assay, the system named is Bacteroides vulgatis. In words: standard agar-dilution test, anaerobic bacteria. Conditions: 2 h.
Assay [6] relates to Hemophilus influenzae 259. In words: gradient-plate agar-dilution method. Conditions: Haemophilus influenzae.
Assay [7] relates to Staphylococcus aureus 3074. In words: standard agar-dilution test. The source says:
(§3) A-40104 factor A is an especially useful antibacterial agent. The minimal inhibitory concentrations (MIC's) at which A-40104 factor A inhibits selected bacteria, as determined by standard agar-dilution tests, are summarized in Table III.

The test system of assay [8] is Bordetella bronchiseptica. Description: standard agar-dilution test.
Description: as §3

A further assay concerns Streptococcus faecalis. In words: standard agar-dilution test. Conditions: Enterococcus faecalis.
Description: as §3

In assay [9] the test system is Staphylococcus aureus 3055. In words: standard agar-dilution test.
Description: as §3

A further assay concerns Neisseria gonorrhea. In words: gradient-plate agar-dilution method.
The subject of assay [10] is Streptococcus sp. X-66 (Group D). In words: gradient-plate agar-dilution method.
The subject of assay [11] is Bacteroides Melaninogenicus 2736. In words: standard agar-dilution test, anaerobic bacteria. Conditions: 2 h.
The subject of a further assay is bacteria of Table V. Description: gradient-plate agar-dilution method, series of in vitro tests.
The subject of assay [12] is Neisseria gonorrhea Sand. Description: gradient-plate agar-dilution method.
In assay [13] the test system is Hemophilus influenzae 260. In words: gradient-plate agar-dilution method. Conditions: Haemophilus influenzae.
The subject of assay [14] is Fusobacterium necrophorum. In words: standard agar-dilution test, anaerobic bacteria. As to conditions: 2 h.

Turning to `C=CC1(C)CC(OC(=O)CO[C@@H]2OC[C@@H](O)[C@H](O)[C@H]2O)C2(C)C(C)CCC3(CCC(=O)C32)C(C)C1O` (stereo partly drawn) [A-40104 factor A, β,D-xylopyranosyl acetal derivative of pleuromutilin], the “growth inhibition of pathogenic organisms” value in [1] was “inhibit the growth of certain pathogenic organisms, particularly gram-positive bacteria”. For the same compound, the MIC is 8 µg/mL (≈ 15.7 µM) with Clostridium perfringens; 0.5 µg/mL (≈ 0.979 µM) in assay [2]; 2 µg/mL (≈ 3.92 µM) in assay [3]; 8 µg/mL (≈ 15.7 µM) in [4]; 8 µg/mL (≈ 15.7 µM) against Bacteroides fragilis 111; 16 µg/mL (≈ 31.3 µM) against Eubacterium aerofacines. Besides, the MIC was ≤ 0.5 µg/mL with Actinomyces israelii; 2 µg/mL (≈ 3.92 µM) in assay [5]; 8 µg/mL (≈ 15.7 µM) against Clostridium septicum; 4 µg/mL (≈ 7.83 µM) with Bacteroides vulgatis; 0.7 µg/mL (≈ 1.37 µM) in [6]; < 0.5 µg/mL in [7]. For the same compound, the MIC is < 0.5 µg/mL in assay [8]; < 0.5 µg/mL against Streptococcus faecalis; < 0.5 µg/mL in assay [9]; 0.5 µg/mL (≈ 0.979 µM) against Neisseria gonorrhea; 0.5 µg/mL (≈ 0.979 µM) in assay [10]; 4 µg/mL (≈ 7.83 µM) in assay [11]. Besides, the MIC in assay [12] was 0.07 µg/mL (≈ 0.137 µM); in assay [13], 0.7 µg/mL (≈ 1.37 µM); in assay [14] it was ≤ 0.5 µg/mL. For the same compound, the comparison with ampicillin entry in the assay on bacteria of Table V is reported as “compares favorably with ampicillin”.
